The text below walks through data of paper PMC6986443, “T‐495, a novel low cooperative M1 receptor positive allosteric modulator, improves memory deficits associated with cholinergic dysfunction and is characterized by low gastrointestinal side effect risk” (Pharmacology Research & Perspectives, 2020).

The test system of one assay is selectivity panel. Particulars: cited from earlier work.
Assay [1] relates to panel of 106 targets, including receptors, enzymes, ion channels, and transporters. Kind of assay: Selectivity panel (Eurofins Panlabs), overall. Conditions: 10 μmol/L. The source says:
(§1) The selectivity of T‐495 at 10 μmol/L against a panel of 106 targets, including receptors, enzymes, ion channels, and transporters, was characterized (Eurofins Panlabs Taiwan Ltd., Taipei, Taiwan).

The test system of assay [2] is CaMKIIα‐tTA/A53T α‐syn dTg mice. Description: Contextual fear conditioning (CFC) test. In kind it is in vivo, mouse. Here is the method: The CFC test was performed in a clear conditioning chamber (33 cm wide, 25 cm long, and 28 cm high; O’Hara & Co., Ltd.) surrounded by a sound‐attenuating box. The illumination in the chamber was maintained at 100 lux. Conditioned stimulus (CS) and unconditioned stimulus (US) were automatically delivered by a tone generator and a shock generator (O’Hara & Co., Ltd.), respectively. On Day 1 (habituation phase), vehicle was orally administered, and mice were placed in the conditioning chamber. They were allowed to freely explore for 120 seconds and then returned to their home cages. […] Mice were placed in the chamber for 120 seconds before the onset of a tone (CS, 60 dB for 30 s). The last 2 seconds of the CS were paired with a foot shock (US, 0.25 mA), and mice were removed and returned to their home cages 180 seconds after the US. […] Mice were again placed in the same chamber for 180 seconds. Freezing behavior was analyzed using ImageJ FZ4 (O’Hara & Co., Ltd.) during the conditioning and retention phases.

A further assay relates to Glutamate, kainate. Description: Selectivity panel. Format: binding.
Description: as §1

For the next assay, the system named is Glutamate, NMDA, glycine. Description: Selectivity panel. In kind it is binding.
Description: as §1

The subject of another assay is Nicotinic acetylcholine. Kind of assay: Selectivity panel. In kind it is binding.
Description: as §1

The test system of assay [3] is Transporter, vesicular monoamine (non-selective). Description: Selectivity panel. In kind it is binding.
Description: as §1

Another assay deals with T1, Muscarinic M3 (Homo sapiens, UniProt P20309).
T1 construct: purchased Eurofins Panlabs Taiwan Ltd
Kind of assay: Selectivity panel. Format: binding.
Description: as §1

The next assay concerns the target T2, Angiotensin AT2 (Homo sapiens, UniProt P50052).
T2 construct: purchased Eurofins Panlabs Taiwan Ltd
Description: Selectivity panel. Format: binding.
Description: as §1

The next assay deals with T3, Muscarinic M2 (Homo sapiens, UniProt P08172).
T3 construct: purchased Eurofins Panlabs Taiwan Ltd
Kind of assay: Selectivity panel. In kind it is binding.
Description: as §1

The target in another assay is T4, Serotonin 5-HT3 (Homo sapiens, UniProt P46098).
T4 construct: purchased Eurofins Panlabs Taiwan Ltd
Description: Selectivity panel. In kind it is binding.
Description: as §1

The target of another assay is T5, Dopamine D1 (Homo sapiens, UniProt P21728).
T5 construct: purchased Eurofins Panlabs Taiwan Ltd
Description: Selectivity panel. Format: binding.
Description: as §1

A further assay concerns the target T6, Tachykinin NK1 (Homo sapiens, UniProt P25103).
T6 construct: purchased Eurofins Panlabs Taiwan Ltd
Description: Selectivity panel. Format: binding.
Description: as §1

Assay [4] has as its system Glycine, strychnine-sensitive. Kind of assay: Selectivity panel. In kind it is binding.
Description: as §1

For the next assay, the target named is T7, Cannabinoid CB1 (Homo sapiens, UniProt P21554).
T7 construct: purchased Eurofins Panlabs Taiwan Ltd
Description: Selectivity panel. In kind it is binding.
Description: as §1

The target of a further assay is T8, Endothelin ETA (Homo sapiens, UniProt P25101).
T8 construct: purchased Eurofins Panlabs Taiwan Ltd
Kind of assay: Selectivity panel. Format: binding.
Description: as §1

The next assay deals with GABAB, non-selective. Description: Selectivity panel. In kind it is binding.
Description: as §1

In a further assay the target is T9, Dopamine D2S (Homo sapiens, UniProt P14416).
T9 construct: purchased Eurofins Panlabs Taiwan Ltd
Kind of assay: Selectivity panel. Format: binding.
Description: as §1

Assay [5] deals with T10, Growth hormone secretagogue (ghrelin) (Homo sapiens, UniProt Q92847).
T10 construct: purchased Eurofins Panlabs Taiwan Ltd
Kind of assay: Selectivity panel. In kind it is binding.
Description: as §1

The target in the next assay is T11, Dopamine D2L (Homo sapiens, UniProt P14416).
T11 construct: purchased Eurofins Panlabs Taiwan Ltd
Description: Selectivity panel. Format: binding.
Description: as §1

The test system of a further assay is GABAA, muscimol, central. Kind of assay: Selectivity panel. Format: binding.
Description: as §1

Assay [6] deals with GABAA, flunitrazepam, central. Kind of assay: Selectivity panel. In kind it is binding.
Description: as §1

Assay [7] has as its system Glutamate, NMDA, phencyclidine. Kind of assay: Selectivity panel. In kind it is binding.
Description: as §1

The target in a further assay is T12, Histamine H2 (Homo sapiens, UniProt P25021).
T12 construct: purchased Eurofins Panlabs Taiwan Ltd
Description: Selectivity panel. In kind it is binding.
Description: as §1

The next assay has as its target T13, Opiate μ (OP3, MOP) (Homo sapiens, UniProt P35372).
T13 construct: purchased Eurofins Panlabs Taiwan Ltd
Description: Selectivity panel. Format: binding.
Description: as §1

Another assay addresses T14, GABAB1A (Homo sapiens, UniProt Q9UBS5).
T14 construct: purchased Eurofins Panlabs Taiwan Ltd
Description: Selectivity panel. Format: binding.
Description: as §1

Assay [8] addresses T15, Transporter, serotonin (SERT) (Homo sapiens, UniProt P31645).
T15 construct: purchased Eurofins Panlabs Taiwan Ltd
Kind of assay: Selectivity panel. Format: binding.
Description: as §1

A further assay concerns the target T16, Bradykinin B2 (Homo sapiens, UniProt P30411).
T16 construct: purchased Eurofins Panlabs Taiwan Ltd
Kind of assay: Selectivity panel. Format: binding.
Description: as §1

For another assay, the target named is T17, Bradykinin B1 (Homo sapiens, UniProt P46663).
T17 construct: purchased Eurofins Panlabs Taiwan Ltd
Kind of assay: Selectivity panel. In kind it is binding.
Description: as §1

The subject of a further assay is Glutamate, AMPA. Kind of assay: Selectivity panel. In kind it is binding.
Description: as §1

For a further assay, the target named is T18, Adrenergic β1 (Homo sapiens, UniProt P08588).
T18 construct: purchased Eurofins Panlabs Taiwan Ltd
Description: Selectivity panel. Format: binding.
Description: as §1

The target of another assay is T19, Histamine H1 (Homo sapiens, UniProt P35367).
T19 construct: purchased Eurofins Panlabs Taiwan Ltd
Description: Selectivity panel. In kind it is binding.
Description: as §1

The target of another assay is T20, Adrenergic β3 (Homo sapiens, UniProt P13945).
T20 construct: purchased Eurofins Panlabs Taiwan Ltd
Kind of assay: Selectivity panel. In kind it is binding.
Description: as §1

The target in the next assay is T21, Adrenergic β2 (Homo sapiens, UniProt P07550).
T21 construct: purchased Eurofins Panlabs Taiwan Ltd
Description: Selectivity panel. In kind it is binding.
Description: as §1

Another assay concerns the target T22, Serotonin 5-HT2C (Homo sapiens, UniProt P28335).
T22 construct: purchased Eurofins Panlabs Taiwan Ltd
Kind of assay: Selectivity panel. Format: binding.
Description: as §1

For assay [9], the system named is Calcium channel L-type, benzothiazepine. Description: Selectivity panel. Format: binding.
Description: as §1

The target of another assay is T23, IP (PGI2) (Homo sapiens, UniProt P43119).
T23 construct: purchased Eurofins Panlabs Taiwan Ltd
Kind of assay: Selectivity panel. Format: binding.
Description: as §1

Assay [10] deals with Calcium channel L-type, dihydropyridine. Kind of assay: Selectivity panel. Format: binding.
Description: as §1

The next assay has as its system GABAA, chloride channel. Kind of assay: Selectivity panel. In kind it is binding.
Description: as §1

SMILES strings stand for the structures.

T5 sequence (P21728 whole entry): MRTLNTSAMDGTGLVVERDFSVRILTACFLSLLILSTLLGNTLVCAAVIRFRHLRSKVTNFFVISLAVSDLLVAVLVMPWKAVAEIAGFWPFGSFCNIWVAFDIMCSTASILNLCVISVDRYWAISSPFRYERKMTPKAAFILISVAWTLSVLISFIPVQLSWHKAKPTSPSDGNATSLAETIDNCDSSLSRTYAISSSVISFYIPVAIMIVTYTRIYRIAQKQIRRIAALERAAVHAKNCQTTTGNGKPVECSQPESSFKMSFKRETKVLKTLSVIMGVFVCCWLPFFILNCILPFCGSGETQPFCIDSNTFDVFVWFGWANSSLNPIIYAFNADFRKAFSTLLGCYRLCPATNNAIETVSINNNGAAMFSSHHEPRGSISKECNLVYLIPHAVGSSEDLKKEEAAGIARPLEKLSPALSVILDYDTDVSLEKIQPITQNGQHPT
T2 sequence (P50052 whole entry): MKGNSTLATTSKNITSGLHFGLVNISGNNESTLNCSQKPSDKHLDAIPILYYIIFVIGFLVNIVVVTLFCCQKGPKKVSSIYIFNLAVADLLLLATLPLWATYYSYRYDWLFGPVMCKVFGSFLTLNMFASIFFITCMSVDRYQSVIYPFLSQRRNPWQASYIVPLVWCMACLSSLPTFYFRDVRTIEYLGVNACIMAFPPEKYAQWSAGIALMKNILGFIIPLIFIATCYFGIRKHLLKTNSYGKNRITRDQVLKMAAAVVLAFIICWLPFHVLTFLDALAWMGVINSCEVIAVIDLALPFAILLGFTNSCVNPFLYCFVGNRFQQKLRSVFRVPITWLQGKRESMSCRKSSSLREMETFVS
T21 sequence (P07550 whole entry): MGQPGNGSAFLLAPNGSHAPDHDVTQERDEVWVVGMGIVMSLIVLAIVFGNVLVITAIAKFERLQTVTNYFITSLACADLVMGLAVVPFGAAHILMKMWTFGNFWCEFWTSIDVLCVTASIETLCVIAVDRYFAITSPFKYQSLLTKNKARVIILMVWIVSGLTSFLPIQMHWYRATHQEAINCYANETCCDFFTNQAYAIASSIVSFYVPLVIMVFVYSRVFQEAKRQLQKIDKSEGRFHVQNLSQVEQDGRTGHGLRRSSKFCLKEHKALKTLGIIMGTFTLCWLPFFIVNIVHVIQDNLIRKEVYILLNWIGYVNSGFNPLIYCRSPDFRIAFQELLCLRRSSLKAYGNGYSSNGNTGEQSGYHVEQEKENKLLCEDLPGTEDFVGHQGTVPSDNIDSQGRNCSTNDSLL
T3 sequence (P08172 whole entry): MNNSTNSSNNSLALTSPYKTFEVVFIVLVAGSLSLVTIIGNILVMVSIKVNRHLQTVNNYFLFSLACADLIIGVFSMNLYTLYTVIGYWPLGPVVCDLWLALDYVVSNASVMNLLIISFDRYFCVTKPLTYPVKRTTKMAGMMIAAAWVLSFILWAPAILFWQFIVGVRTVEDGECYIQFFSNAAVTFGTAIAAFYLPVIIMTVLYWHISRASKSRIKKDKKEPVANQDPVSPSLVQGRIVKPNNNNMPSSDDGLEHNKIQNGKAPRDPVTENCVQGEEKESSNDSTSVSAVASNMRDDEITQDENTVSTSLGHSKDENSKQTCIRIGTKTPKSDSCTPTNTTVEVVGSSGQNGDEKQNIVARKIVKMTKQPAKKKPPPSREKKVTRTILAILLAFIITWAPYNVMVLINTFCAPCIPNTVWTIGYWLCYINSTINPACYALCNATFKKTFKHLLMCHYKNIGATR
T16 sequence (P30411 whole entry): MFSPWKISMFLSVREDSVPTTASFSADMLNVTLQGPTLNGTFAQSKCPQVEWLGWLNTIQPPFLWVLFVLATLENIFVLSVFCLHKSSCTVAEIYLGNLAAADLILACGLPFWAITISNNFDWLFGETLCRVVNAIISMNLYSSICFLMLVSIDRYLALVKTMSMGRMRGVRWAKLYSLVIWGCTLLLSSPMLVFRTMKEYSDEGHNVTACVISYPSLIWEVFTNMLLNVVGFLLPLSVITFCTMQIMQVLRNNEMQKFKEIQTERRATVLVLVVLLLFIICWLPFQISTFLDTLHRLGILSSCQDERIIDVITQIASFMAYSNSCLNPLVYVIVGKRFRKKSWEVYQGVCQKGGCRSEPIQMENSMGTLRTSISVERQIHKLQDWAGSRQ
T6 sequence (P25103 whole entry): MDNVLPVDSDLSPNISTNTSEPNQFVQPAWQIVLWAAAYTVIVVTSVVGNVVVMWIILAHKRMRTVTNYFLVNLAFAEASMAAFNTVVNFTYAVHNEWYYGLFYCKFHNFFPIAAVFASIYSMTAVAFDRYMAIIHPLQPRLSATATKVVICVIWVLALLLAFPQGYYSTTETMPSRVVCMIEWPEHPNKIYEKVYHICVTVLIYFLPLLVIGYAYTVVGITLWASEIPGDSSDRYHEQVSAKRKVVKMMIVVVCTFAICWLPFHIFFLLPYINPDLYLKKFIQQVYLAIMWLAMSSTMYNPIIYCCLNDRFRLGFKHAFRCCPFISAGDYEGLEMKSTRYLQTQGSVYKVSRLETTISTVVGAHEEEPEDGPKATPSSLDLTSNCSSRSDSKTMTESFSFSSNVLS
T10 sequence (Q92847 whole entry): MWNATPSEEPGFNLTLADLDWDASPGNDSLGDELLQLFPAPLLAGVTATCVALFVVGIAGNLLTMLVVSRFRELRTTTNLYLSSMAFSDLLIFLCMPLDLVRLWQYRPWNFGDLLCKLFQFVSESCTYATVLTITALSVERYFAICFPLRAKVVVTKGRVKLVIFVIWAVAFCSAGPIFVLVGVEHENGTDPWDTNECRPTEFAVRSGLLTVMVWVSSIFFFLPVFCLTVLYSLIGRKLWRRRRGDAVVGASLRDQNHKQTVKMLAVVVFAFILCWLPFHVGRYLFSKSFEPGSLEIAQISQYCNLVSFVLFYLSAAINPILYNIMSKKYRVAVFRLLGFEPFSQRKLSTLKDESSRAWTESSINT
T20 sequence (P13945 whole entry): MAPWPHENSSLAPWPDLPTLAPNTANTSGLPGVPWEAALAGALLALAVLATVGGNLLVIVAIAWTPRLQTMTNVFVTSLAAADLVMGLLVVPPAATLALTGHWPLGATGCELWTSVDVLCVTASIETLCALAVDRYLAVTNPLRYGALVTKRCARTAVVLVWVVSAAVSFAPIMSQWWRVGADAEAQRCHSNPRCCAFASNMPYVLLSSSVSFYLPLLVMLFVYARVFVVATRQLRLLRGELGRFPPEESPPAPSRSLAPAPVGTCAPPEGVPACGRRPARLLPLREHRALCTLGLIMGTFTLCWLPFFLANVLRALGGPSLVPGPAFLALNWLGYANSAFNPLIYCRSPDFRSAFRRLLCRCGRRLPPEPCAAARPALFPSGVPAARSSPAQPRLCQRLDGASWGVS
T11 sequence (P14416 whole entry): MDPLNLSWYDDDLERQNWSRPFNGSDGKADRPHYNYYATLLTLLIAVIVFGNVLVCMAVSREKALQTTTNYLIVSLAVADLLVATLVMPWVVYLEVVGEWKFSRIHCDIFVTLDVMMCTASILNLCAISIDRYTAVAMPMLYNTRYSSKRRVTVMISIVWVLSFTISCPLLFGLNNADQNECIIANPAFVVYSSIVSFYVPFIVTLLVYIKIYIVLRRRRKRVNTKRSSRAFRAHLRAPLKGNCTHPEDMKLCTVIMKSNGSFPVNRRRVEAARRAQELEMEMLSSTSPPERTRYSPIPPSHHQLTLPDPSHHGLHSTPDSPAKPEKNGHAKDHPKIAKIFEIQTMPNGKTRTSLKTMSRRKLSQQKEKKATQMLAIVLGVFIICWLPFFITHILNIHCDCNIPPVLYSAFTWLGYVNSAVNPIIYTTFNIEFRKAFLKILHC
T8 sequence (P25101 21-427): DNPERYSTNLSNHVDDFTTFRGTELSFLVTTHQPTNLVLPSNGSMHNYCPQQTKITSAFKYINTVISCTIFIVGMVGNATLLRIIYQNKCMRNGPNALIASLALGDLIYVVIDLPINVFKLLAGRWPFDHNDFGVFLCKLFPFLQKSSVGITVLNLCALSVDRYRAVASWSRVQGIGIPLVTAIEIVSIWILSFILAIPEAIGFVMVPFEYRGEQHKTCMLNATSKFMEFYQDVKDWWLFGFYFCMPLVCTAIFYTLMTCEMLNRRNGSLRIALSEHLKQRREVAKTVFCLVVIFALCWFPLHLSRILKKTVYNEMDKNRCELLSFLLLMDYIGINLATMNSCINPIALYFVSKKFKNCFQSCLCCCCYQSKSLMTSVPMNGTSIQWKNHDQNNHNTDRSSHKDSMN
T18 sequence (P08588 whole entry): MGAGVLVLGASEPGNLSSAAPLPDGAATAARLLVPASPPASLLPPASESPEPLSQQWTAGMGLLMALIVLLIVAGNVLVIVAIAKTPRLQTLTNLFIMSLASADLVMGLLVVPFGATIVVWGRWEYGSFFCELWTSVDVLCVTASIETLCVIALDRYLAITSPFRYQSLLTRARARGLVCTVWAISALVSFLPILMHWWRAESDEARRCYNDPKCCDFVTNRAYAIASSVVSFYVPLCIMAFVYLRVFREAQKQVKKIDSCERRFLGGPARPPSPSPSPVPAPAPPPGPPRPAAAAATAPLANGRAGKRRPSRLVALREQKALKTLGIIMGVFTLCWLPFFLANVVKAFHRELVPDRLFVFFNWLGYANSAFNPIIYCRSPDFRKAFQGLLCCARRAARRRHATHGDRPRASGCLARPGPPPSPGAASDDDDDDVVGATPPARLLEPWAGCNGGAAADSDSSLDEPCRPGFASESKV
T12 sequence (P25021 whole entry): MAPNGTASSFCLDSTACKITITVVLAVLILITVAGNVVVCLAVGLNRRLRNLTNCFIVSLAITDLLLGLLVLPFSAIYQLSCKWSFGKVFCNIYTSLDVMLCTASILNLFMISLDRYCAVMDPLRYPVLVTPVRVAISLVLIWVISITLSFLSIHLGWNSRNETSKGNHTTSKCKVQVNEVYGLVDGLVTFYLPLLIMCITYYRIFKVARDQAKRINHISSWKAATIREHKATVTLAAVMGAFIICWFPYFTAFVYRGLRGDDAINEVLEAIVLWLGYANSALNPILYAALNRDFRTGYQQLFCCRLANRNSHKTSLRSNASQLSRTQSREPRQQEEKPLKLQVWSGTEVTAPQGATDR

For the molecule `Cc1ccc(Cc2cc3c(=O)n([C@H]4CCCC[C@@H]4O)cnc3c3ccccc23)cn1` [MK‐7622, 3‐((1S,2S)‐2‐hydroxycyclohexyl)‐6‐((6‐methylpyridin‐3‐yl)methyl)benzo[h]quinazolin‐4(3H)‐one, reference compound], the “selectivity in a selectivity panel” value in the assay on selectivity panel was “exhibited inhibitory activities only against 5‐lipoxygenase and phosphodiesterase 4”.

The term % inhibition denotes the drop in the measured response relative to a control, in per cent. The inhibition is the relative decrease from the control value, in per cent. `Cc1c(Cc2ccc(Cl)nc2)cc2c(c1Cl)OCN([C@H]1CCC[C@@H]1O)C2=O` [T‐495, 8‐chloro‐6‐((6‐chloropyridin‐3‐yl)methyl)‐3‐((1S,2S)‐2‐hydroxycyclopentyl)‐7‐methyl‐2,3‐dihydro‐4H‐1,3‐benzoxazin‐4‐one]: the “significant inhibition or stimulation (≥50%) in panel of 106 targets” value in assay [1] was “No significant inhibition or stimulation (≥50%) was observed, except for two targets”. Moreover, the “level of freezing behavior during the conditioning phase” value in [2] (3 mg/kg p.o.) is reported as “did not change”. The “reduced level of freezing behavior during the retention phase” value in assay [2] (3 mg/kg p.o. 1 h before conditioning and retention) was “significantly reversed”. The “% inhibition at 10 μM” value is recorded as 13% in the assay on Glutamate, kainate; 15% in the assay on Glutamate, NMDA, glycine; -4% with Nicotinic acetylcholine; 12% in assay [3]; 9% in [4]; 4% with GABAB, non-selective. Also, the “% inhibition at 10 μM” value in the assay on GABAA, muscimol, central was -1%; in assay [6], 12%; in [7] it was 3%; in the assay with Glutamate, AMPA, 20%; in [9], -5%; in assay [10] it was 27%. Moreover, the “% inhibition at 10 μM” value with GABAA, chloride channel was determined as 45%. Also, the inhibition at 10 µM is 20% against Muscarinic M3; 0% at Angiotensin AT2; 8% on Muscarinic M2; -3% at Serotonin 5-HT3; -7% against Dopamine D1; -2% against Tachykinin NK1. Besides, the inhibition at 10 µM against Cannabinoid CB1 is 14%; against Endothelin ETA, -4%; against Dopamine D2S, 15%; in assay [5] it was 8%; on Dopamine D2L, 4%; against Histamine H2 it was 22%. The inhibition at 10 µM against Opiate μ (OP3, MOP) was 12%; at GABAB1A, 5%; in [8] it was 17%; on Bradykinin B2, -4%; on Bradykinin B1, 2%; against Adrenergic β1, 4%. Besides, the inhibition at 10 µM was found to be 2% at Histamine H1; 7% against Adrenergic β3; 15% against Adrenergic β2; 10% on Serotonin 5-HT2C; 16% against IP (PGI2).
